Laboratory results reported in patent US20040039530A1, “Pharmacokinetic tool and method for predicting metabolism of a compound in a mammal” (priority 2003, published 2004).

Assay: Hepatocyte assay: concentration versus time data of parent compound, fitted for Km, Vmax and Kd
Description: Traditionally, initial experiments were performed to get a “ball park” number around the Km, then additional studies performed “near” that concentration. A data analyst, or fitting expert, then took the data and determined the Km and Vmax. Some expertise is required to be able to interpret the initial studies and then to fit the data to determine Km. […] Especially preferred concentrations are 0.4, 2, 10, 50, 125 and 250 μM.
Equation 1 is the equation that incorporates transport and makes the assumption that the changes in concentration with time cannot be fully explained using the Michaelis-Menten equation alone. Kd·C is the transport term where Kd is the first order rate constant and C is the concentration outside of the hepatocyte or cell. dC/dt is the rate of metabolism, Vmax is the maximum possible rate of metabolism and Km is the Michaelis-Menten constant defined as concentration where dC/dt equals ½*Vmax. [formula]
The best fit lines and simulated data are obtained using a minimization algorithm capable of determining Vmax, Km, and Kd values that provide minimum deviation of the simulated data from the experimental data. In this example the minimization algorithms were completed using the computer based application, Kinetica®.
Briefly, the minimization algorithms uses the main function “mrqmin” that relies on several other functions to complete the analysis. This function assignees different initial conditions to fitted variables and picks the best set of results based on the minimal value of the computed “sum of squares”. Some statistical information can be collected in this routine as well. The “mrqmin” function performs one iteration of Marquardt method. Algorithmically, it is the same as listed in Numerical Recipes with modifications to parameter input, output and exchanges, and some modifications to intermediate computations. The “mrqmin” calls “mrqcof” function for some intermediate computations. […]
Goodness of fit is determined by evaluation of % CV, and percent unchanged parent compounds remaining at 240 minutes at 0.4 μM.

## Oc1ccc2c3c1O[C@H]1[C@@H](O)CC[C@@]4(O)[C@@H](C2)N(CC2CCC2)CC[C@]314 [Nalbuphine]
Initial concentrations, hepatocyte assay
  Km: 12.2 µM
Std (standardized) concentrations, hepatocyte assay
  Km: 10.9 µM
Determined by non-linear fitting and minimization, compound-specific initial concentrations (Table 9)
  Km: 10 to 50 µM
